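Each compound was tested at five concentrations against cells in 96-well plates for 48 hours. At the GI50, growth is halved.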 Activity calls are given as the source filed them. Rule as the data show it: active = GI50 up to about 1.1 µM and inactive = higher.

Some test systems named below: HOP-62; SK-MEL-2; OVCAR-4; OVCAR-8; EKVX; MOLT-4; SN12C; M14; SF-539; OVCAR-5; SK-MEL-5; SF-295; NCI-H460; HT-29; M19-MEL; K562; HOP-92; NCI/ADR-RES; SR; T47D.
Assay in all cases: inhibition of tumour cell growth, NCI panel, 48 h

`COc1ccc(-c2c(N)[n+]([O-])c3cc(C)c(C)cc3[n+]2[O-])cc1OC`: the GI50 was > 100 µM (inactive) in the assay with HOP-62; 66.8 µM (inactive) in the assay on SK-MEL-2; > 100 µM (inactive) in the assay on OVCAR-4; > 100 µM (inactive) with OVCAR-8; > 100 µM (inactive) with EKVX; 78.3 µM (inactive) with MOLT-4. For the same molecule, the GI50 in the assay with SN12C is > 100 µM (inactive); in the assay on M14, 55.6 µM (inactive); with SF-539, 33.9 µM (inactive); in the assay with OVCAR-5 it was > 100 µM (inactive); in the assay on SK-MEL-5, 30.9 µM (inactive); with SF-295, > 100 µM (inactive). For the same molecule, the GI50 in the assay on NCI-H460 is > 100 µM (inactive); with HT-29, 73.1 µM (inactive); with M19-MEL, 72.3 µM (inactive); with K562, 69.7 µM (inactive).
Consider `CN(CC(=O)O)S(=O)(=O)c1ccc2ccccc2c1`, for which the GI50 in the assay on SK-MEL-2, in the assay on OVCAR-4, in the assay with OVCAR-8, in the assay with EKVX, in the assay with MOLT-4 and in the assay with SN12C was > 100 µM (inactive) each time. Also, the GI50 with M14, in the assay with SF-539, with OVCAR-5, in the assay on SK-MEL-5, in the assay on SF-295 and in the assay on HOP-92 was > 100 µM (inactive) each time. Besides, the GI50 in the assay on NCI-H460, in the assay on HT-29, in the assay on M19-MEL and with K562 was > 100 µM (inactive) throughout.
For `CN1C(=O)C2(Cc3cn(C45CC67SSC(CO)(C(=O)N6C4Nc4ccccc45)N(C)C7=O)c4ccccc34)SSC1(CO)C(=O)N2C` (stereo not given), the GI50 in the assay with HOP-62 is 0.0634 µM (active); with SK-MEL-2 it was 0.1 µM (active); in the assay on OVCAR-4, < 0.01 µM (active); with OVCAR-8, 0.0206 µM (active); in the assay with EKVX, 0.0282 µM (active); with MOLT-4, 0.0405 µM (active). For the same molecule, the GI50 was 0.0147 µM (active) in the assay on SN12C; < 0.01 µM (active) in the assay with M14; 0.011 µM (active) in the assay on SF-539; 0.12 µM (active) with OVCAR-5; 0.0197 µM (active) with NCI/ADR-RES; 0.1 µM (active) with SK-MEL-5. In addition, the GI50 in the assay with SF-295 was 0.309 µM (active); with HOP-92, 0.053 µM (active); in the assay with NCI-H460, 0.218 µM (active); in the assay with HT-29 it was < 0.01 µM (active); in the assay with SR, < 0.01 µM (active); with T47D, < 0.01 µM (active). The GI50 with K562 was < 0.01 µM (active).
As for `CCOC(=O)C(Cc1ccc(N(CCCl)CCCl)cc1)NC(=O)CCCN1C(=O)CN=C(c2ccccc2)c2cc(Cl)ccc21` (stereo not given), the GI50 in the assay on HOP-62 was 36.9 µM (inactive); with SK-MEL-2, 14.7 µM (inactive); with OVCAR-4, 18.6 µM (inactive); in the assay on OVCAR-8, 18.7 µM (inactive); with EKVX, 41.3 µM (inactive); in the assay with MOLT-4 it was 2.44 µM (inactive). The GI50 in the assay with SN12C is 4.43 µM (inactive); with M14 it was 7 µM (inactive); in the assay with SF-539 it was 6.37 µM (inactive); with OVCAR-5 it was > 100 µM (inactive); with NCI/ADR-RES it was 22 µM (inactive); in the assay with SK-MEL-5, 12.4 µM (inactive). Besides, the GI50 was 51.4 µM (inactive) in the assay with SF-295; 3.77 µM (inactive) with HOP-92; 5.35 µM (inactive) in the assay with NCI-H460; 15.3 µM (inactive) in the assay with HT-29; 2.31 µM (inactive) in the assay with SR; 3.55 µM (inactive) in the assay on T47D. Further, the GI50 in the assay with K562 was 6.32 µM (inactive).
Take `CCOC(=O)NC(=O)c1cn(C(CC)COC(=O)NCCCCCCNC(=O)OCC(CC)n2cc(C(=O)NC(=O)OCC)c(=O)[nH]c2=O)c(=O)[nH]c1=O` (stereo not given): the GI50 in the assay on HOP-62, in the assay on SK-MEL-2, in the assay with OVCAR-4, with OVCAR-8, in the assay with EKVX and with MOLT-4 was > 100 µM (inactive) each time. For the same molecule, the GI50 in the assay on SN12C, with M14, in the assay on SK-MEL-5, with SF-295, in the assay with NCI-H460 and in the assay with HT-29 was > 100 µM (inactive) in each case. Moreover, the GI50 in the assay with M19-MEL and in the assay on K562 was > 100 µM (inactive) throughout.
As for `[O-][S+]1c2ccccc2N=C(c2ccc3ccccc3c2)CC1C1=CC=CCC1` (stereo not given), the GI50 in the assay with HOP-62 was 19.1 µM (inactive); in the assay with SK-MEL-2 it was 19.1 µM (inactive); in the assay with OVCAR-4, > 10 µM (inactive); in the assay on OVCAR-8, 20.3 µM (inactive); with EKVX, 22.7 µM (inactive); in the assay on MOLT-4, 13.7 µM (inactive). For the same molecule, the GI50 with SN12C was 17.4 µM (inactive); in the assay on M14, 18.7 µM (inactive); in the assay on SF-539 it was 21.9 µM (inactive); in the assay on OVCAR-5 it was 18.9 µM (inactive); in the assay on SK-MEL-5, 16.6 µM (inactive); in the assay on SF-295 it was 17.7 µM (inactive). Besides, the GI50 in the assay with NCI-H460 is 20.3 µM (inactive); in the assay with HT-29, 16.5 µM (inactive); in the assay on M19-MEL it was 17.1 µM (inactive); with K562 it was 10.3 µM (inactive).
Consider `CCOc1c(OC)cc(C2c3cc4c(c(OCC)c3CC3COC(=O)C32)OCO4)cc1OC` (stereo not given), for which the GI50 in the assay with HOP-62 is 1.78 µM (inactive); with SK-MEL-2, 13.2 µM (inactive); in the assay with OVCAR-4, 8.28 µM (inactive); in the assay on OVCAR-8 it was 2.11 µM (inactive); with EKVX, 12.7 µM (inactive); in the assay on MOLT-4, 2.65 µM (inactive). The GI50 with SN12C was 2.21 µM (inactive); with M14, 3.15 µM (inactive); in the assay with SF-539 it was 1.75 µM (inactive); in the assay with OVCAR-5 it was 3.24 µM (inactive); with NCI/ADR-RES, 2.03 µM (inactive); in the assay with SK-MEL-5, 1.63 µM (inactive). In addition, the GI50 is 1 µM (active) with SF-295; 37.1 µM (inactive) in the assay with HOP-92; 3.21 µM (inactive) in the assay with NCI-H460; 2.47 µM (inactive) in the assay on HT-29; 0.247 µM (active) in the assay on SR; 23 µM (inactive) with T47D. In addition, in the assay on K562, the GI50 is 1.83 µM (inactive).
As for `C=C1C(=O)OC2/C=C(\CO)C3OC3C3OC3(C)CC(OC(=O)/C(=C/C)CO)C12` (stereo not given), the GI50 was > 100 µM (inactive) in the assay with HOP-62; > 100 µM (inactive) with SK-MEL-2; 45.4 µM (inactive) in the assay with OVCAR-4; 86.3 µM (inactive) with OVCAR-8; 44 µM (inactive) in the assay with EKVX; 26.4 µM (inactive) with MOLT-4. The GI50 in the assay on SN12C was > 100 µM (inactive); in the assay with M14 it was > 100 µM (inactive); in the assay with SF-539 it was 64 µM (inactive); in the assay with OVCAR-5, 50.7 µM (inactive); with NCI/ADR-RES, > 100 µM (inactive); with SK-MEL-5, > 100 µM (inactive). For the same molecule, the GI50 in the assay with SF-295 was > 100 µM (inactive); with HOP-92, > 100 µM (inactive); in the assay on NCI-H460 it was > 100 µM (inactive); with HT-29 it was 54.7 µM (inactive); in the assay with SR it was 28.2 µM (inactive); in the assay with T47D, 92.9 µM (inactive). Further, the GI50 in the assay on K562 is 24.8 µM (inactive).
In the case of `CC(CO)(CO)/N=C/c1cc(I)cc(I)c1O`, the GI50 is 11.2 µM (inactive) in the assay with HOP-62; 12.2 µM (inactive) in the assay on SK-MEL-2; 8.65 µM (inactive) with OVCAR-4; 15.5 µM (inactive) in the assay with OVCAR-8; 19.5 µM (inactive) in the assay with EKVX; 11.5 µM (inactive) with MOLT-4. Besides, the GI50 is 13.3 µM (inactive) with SN12C; 14.1 µM (inactive) with M14; 14.5 µM (inactive) in the assay with SF-539; 22.3 µM (inactive) in the assay with OVCAR-5; 14.2 µM (inactive) with NCI/ADR-RES; 13.8 µM (inactive) in the assay on SK-MEL-5. For the same molecule, the GI50 was 15.8 µM (inactive) in the assay on SF-295; 14 µM (inactive) in the assay with HOP-92; 22.2 µM (inactive) with NCI-H460; 21.4 µM (inactive) in the assay on HT-29; 8.53 µM (inactive) in the assay with SR; 23.1 µM (inactive) with T47D. For the same molecule, the GI50 in the assay with K562 is 27.1 µM (inactive).
On to `CCOc1ccc(/N=C/C=C(\Cl)c2ccc3ccccc3c2)cc1`, for which the GI50 in the assay with HOP-62 was 15.3 µM (inactive); in the assay with SK-MEL-2 it was 19.6 µM (inactive); in the assay with OVCAR-4, 10.6 µM (inactive); in the assay with OVCAR-8, 16.2 µM (inactive); with EKVX, 27.2 µM (inactive); with MOLT-4 it was 2.55 µM (inactive). The GI50 in the assay on SN12C was 17.4 µM (inactive); in the assay on M14, 20.8 µM (inactive); in the assay with SF-539, 21.2 µM (inactive); with OVCAR-5, 17.8 µM (inactive); in the assay on NCI/ADR-RES it was 12.1 µM (inactive); in the assay on SK-MEL-5, 16.4 µM (inactive). For the same molecule, the GI50 with SF-295 is 18.8 µM (inactive); in the assay on HOP-92, 15.3 µM (inactive); with NCI-H460, 20 µM (inactive); in the assay with HT-29, 11.5 µM (inactive); with SR, 2.52 µM (inactive); with T47D, 4.95 µM (inactive). The GI50 in the assay with K562 is 8.55 µM (inactive).
Consider `Cn1c(=S)[nH]c(N)c(Cc2ccccc2)c1=O`, for which the GI50 in the assay on HOP-62 is > 100 µM (inactive); in the assay on SK-MEL-2, > 100 µM (inactive); with OVCAR-4 it was > 100 µM (inactive); in the assay on OVCAR-8 it was 93.8 µM (inactive); with EKVX it was 92.5 µM (inactive); in the assay on MOLT-4, 41.8 µM (inactive). Moreover, the GI50 in the assay on SN12C was > 100 µM (inactive); in the assay with M14, > 100 µM (inactive); in the assay on SF-539, > 100 µM (inactive); in the assay with OVCAR-5 it was > 100 µM (inactive); in the assay on NCI/ADR-RES it was 64.4 µM (inactive); in the assay with SK-MEL-5 it was > 100 µM (inactive). The GI50 is > 100 µM (inactive) in the assay on SF-295; 25.6 µM (inactive) with HOP-92; > 100 µM (inactive) in the assay on NCI-H460; 77.8 µM (inactive) in the assay on HT-29; 67.5 µM (inactive) in the assay on SR; 40.3 µM (inactive) in the assay with T47D. Further, the GI50 in the assay with K562 was 78.5 µM (inactive).

For the origin of these results see ChEMBL document CHEMBL1201862, “PubChem BioAssay data set” (2004).
